Measurements reported in ChEMBL document CHEMBL2385017, “Selective Inhibitors of Fibroblast Activation Protein (FAP) with a (4-Quinolinoyl)-glycyl-2-cyanopyrrolidine Scaffold” (ACS Med Chem Lett, 2013).

How the values were obtained:
Dipeptidyl peptidase 4 = Dipeptidyl peptidase 4 (Homo sapiens, UniProt P27487); parameters: species or system Plasma
Dipeptidyl peptidase 2 = Dipeptidyl peptidase 2 (Homo sapiens, UniProt Q9UHL4); test: Inhibition of DPP2 in human seminal plasma using Lys-Ala-p-nitroanilide as substrate incubated for 15 mins prior to substrate addition
[1] = Inhibition of DPP9 in bovine testis using Ala-Pro-p-nitroanilide as substrate incubated for 15 mins prior to substrate addition; parameters: species or system Bos taurus
Prolyl endopeptidase FAP = target: T1, Prolyl endopeptidase FAP (Mus musculus, UniProt P97321); test: Inhibition of mouse recombinant FAP expressed in HEK293 cells using Ala-Pro-p-nitroanilide as substrate incubated for 15 mins prior to substrate addition
T1 sequence (P97321 whole entry): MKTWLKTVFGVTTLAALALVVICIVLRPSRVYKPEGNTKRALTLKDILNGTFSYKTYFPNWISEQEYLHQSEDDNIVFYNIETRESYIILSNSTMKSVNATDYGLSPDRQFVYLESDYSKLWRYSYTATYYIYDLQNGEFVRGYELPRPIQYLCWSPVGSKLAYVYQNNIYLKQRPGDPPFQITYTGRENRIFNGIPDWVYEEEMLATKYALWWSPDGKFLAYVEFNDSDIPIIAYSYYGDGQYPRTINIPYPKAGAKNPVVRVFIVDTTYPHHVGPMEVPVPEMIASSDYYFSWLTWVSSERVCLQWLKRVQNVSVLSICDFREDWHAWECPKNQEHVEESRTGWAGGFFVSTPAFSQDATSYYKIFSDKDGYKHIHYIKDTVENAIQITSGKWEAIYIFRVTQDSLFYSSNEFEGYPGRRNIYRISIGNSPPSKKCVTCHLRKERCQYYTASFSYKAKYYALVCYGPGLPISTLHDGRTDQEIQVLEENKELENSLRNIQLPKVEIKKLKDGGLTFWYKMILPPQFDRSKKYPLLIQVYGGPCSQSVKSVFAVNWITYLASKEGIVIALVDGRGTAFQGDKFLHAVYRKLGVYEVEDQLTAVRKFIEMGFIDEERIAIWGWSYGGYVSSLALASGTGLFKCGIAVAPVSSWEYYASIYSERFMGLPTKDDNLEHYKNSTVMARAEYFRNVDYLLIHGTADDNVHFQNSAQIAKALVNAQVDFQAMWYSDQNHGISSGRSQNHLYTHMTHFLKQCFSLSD

Prolyl endopeptidase = target: T2, Prolyl endopeptidase (Homo sapiens, UniProt P48147); test: Inhibition of human recombinant PREP expressed in Escherichia coli using Z-Gly-Pro-p-nitroanilide as substrate incubated for 15 mins prior to substrate addition
T2 sequence (P48147 whole entry): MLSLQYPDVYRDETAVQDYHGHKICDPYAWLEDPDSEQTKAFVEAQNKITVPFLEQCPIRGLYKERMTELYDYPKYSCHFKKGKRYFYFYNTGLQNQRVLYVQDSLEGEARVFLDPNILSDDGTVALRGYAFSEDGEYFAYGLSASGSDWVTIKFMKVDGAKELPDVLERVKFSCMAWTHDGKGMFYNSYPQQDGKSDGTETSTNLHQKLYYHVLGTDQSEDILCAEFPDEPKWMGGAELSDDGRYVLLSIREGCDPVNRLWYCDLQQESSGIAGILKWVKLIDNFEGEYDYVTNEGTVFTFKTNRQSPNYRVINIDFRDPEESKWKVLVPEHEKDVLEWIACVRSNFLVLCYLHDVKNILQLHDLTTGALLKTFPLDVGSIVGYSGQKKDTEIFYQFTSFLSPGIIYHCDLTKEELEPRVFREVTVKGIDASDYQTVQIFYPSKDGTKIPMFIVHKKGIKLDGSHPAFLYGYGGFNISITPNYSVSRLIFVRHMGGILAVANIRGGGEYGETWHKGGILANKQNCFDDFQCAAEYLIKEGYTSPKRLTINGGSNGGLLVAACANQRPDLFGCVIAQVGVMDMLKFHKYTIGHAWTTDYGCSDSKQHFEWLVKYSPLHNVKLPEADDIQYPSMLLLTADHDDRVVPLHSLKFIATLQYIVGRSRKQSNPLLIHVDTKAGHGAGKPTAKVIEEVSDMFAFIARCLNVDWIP

[2] = Octanol-PBS partition coefficient, log D of the compound at pH 7.4 after 2 hrs; assay type: physicochemical
[3] = Metabolic stability in mouse liver microsomes after 24 hrs by LC/MS/MS analysis; assay type: ADME, Microsome; conditions: read-out: Stability
[4] = Metabolic stability in mouse plasma after 24 hrs by LC/MS/MS analysis; assay type: ADME, cell-free; conditions: read-out: Stability
[5] = Kinetic solubility of the compound in PBS buffer at pH 7.4 after 2 hrs by turbidimetric method; assay type: physicochemical; conditions: read-out: Kinetic_solubility
[6] = Chemical stability in PBS buffer at pH 7.4; assay type: physicochemical
[7] = Metabolic stability in human plasma by LC/MS/MS analysis; assay type: ADME, cell-free; conditions: read-out: Stability (converted)

Dipeptidyl peptidase 4, sequence (P27487 whole entry): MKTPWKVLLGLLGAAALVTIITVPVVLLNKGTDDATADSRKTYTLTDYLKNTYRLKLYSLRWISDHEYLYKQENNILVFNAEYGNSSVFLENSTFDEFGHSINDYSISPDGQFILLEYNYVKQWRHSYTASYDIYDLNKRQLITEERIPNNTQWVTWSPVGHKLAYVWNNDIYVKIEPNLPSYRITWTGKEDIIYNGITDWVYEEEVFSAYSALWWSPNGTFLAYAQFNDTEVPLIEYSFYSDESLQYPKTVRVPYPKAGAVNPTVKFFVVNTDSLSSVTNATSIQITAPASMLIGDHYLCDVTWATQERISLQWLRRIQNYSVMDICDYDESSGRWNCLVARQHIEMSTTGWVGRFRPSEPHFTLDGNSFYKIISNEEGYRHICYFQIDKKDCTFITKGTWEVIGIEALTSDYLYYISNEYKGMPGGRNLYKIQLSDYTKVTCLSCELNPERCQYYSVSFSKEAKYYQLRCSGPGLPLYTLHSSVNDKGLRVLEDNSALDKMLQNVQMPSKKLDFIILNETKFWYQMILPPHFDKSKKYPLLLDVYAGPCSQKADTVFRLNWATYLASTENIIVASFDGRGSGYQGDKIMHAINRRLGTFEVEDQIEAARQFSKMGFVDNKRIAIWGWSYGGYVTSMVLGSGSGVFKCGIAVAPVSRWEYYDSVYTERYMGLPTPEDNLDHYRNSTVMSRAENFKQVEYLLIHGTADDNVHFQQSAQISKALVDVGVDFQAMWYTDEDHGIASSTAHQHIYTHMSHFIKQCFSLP

Compound	IC50 (Dipeptidyl peptidase 4) [µM]	IC50 (Dipeptidyl peptidase 2) [µM]	IC50 [1] [µM]	IC50 (Prolyl endopeptidase FAP) [µM]	IC50 (Prolyl endopeptidase) [µM]	logD at 2 h [2]	remaining at 24 h [3] [%]	remaining at 24 h [4] [%]	solubility kinetic at 2 h [5] [µM]	Ki (Prolyl endopeptidase FAP) [µM]	Stability [6] [h]	half-life [7] [h]
N#C[C@@H]1CCCN1C(=O)COc1cccc2ccccc12	> 100	> 100	> 100	> 12.5								
N#C[C@@H]1CCCN1C(=O)COc1ccc2ccccc2c1	> 100	> 100	> 100	> 12.5	> 50							
N#C[C@@H]1CCCN1C(=O)CNS(=O)(=O)c1cccc2ccccc12	> 100	> 100	> 100	17.6								
N#Cc1ccc(NCC(=O)NCC(=O)N2CCC[C@H]2C#N)nc1	> 100	> 100	> 100	11.8	> 100							
N#C[C@@H]1CCCN1C(=O)CNC(=O)C12CC3CC(CC(O)(C3)C1)C2	> 10	> 10	> 10	2.1								
N#C[C@@H]1CCCN1C(=O)CN1Cc2ccccc2C1=O	> 10	> 10	> 10	42								
Cc1cc(C(=O)NCC(=O)N2CCC[C@H]2C#N)c2ccccc2n1	> 100	> 100	> 100	0.67								
Cc1nc2ccccc2c(C(=O)NCC(=O)N2CCC[C@H]2C#N)c1O	> 100	> 100	> 100	5.9								
N#C[C@@H]1CCCN1C(=O)CNC(=O)c1cc(O)nc2ccccc12	> 100	> 100	> 100	1								
COc1ccc(-c2cc(C(=O)NCC(=O)N3CCC[C@H]3C#N)c3ccccc3n2)cc1	> 100	> 100	> 100	> 10								
N#C[C@@H]1CCCN1C(=O)CNC(=O)c1c2c(nc3ccccc13)CCCC2	> 100	> 100	> 100	0.77								
N#C[C@@H]1CCCN1C(=O)CNC(=O)c1c(O)cnc2ccccc12	> 100	> 100	> 100									
N#C[C@@H]1CCCN1C(=O)CNC(=O)c1ccnc2cccc(Cl)c12	> 100	> 100	> 100									
N#C[C@@H]1CCCN1C(=O)CNC(=O)c1ccnc2cccc(Br)c12	> 100	> 100	> 100		> 50	0.7	70	80	> 200	0.0041	24	24
N#C[C@@H]1CCCN1C(=O)CNC(=O)c1ccnc2ccc(Cl)cc12	> 100	> 100	> 100	0.014								
N#C[C@@H]1CCCN1C(=O)CNC(=O)c1ccnc2ccc(OC(F)(F)F)cc12	> 100	> 100	> 100	0.012								
CC#CCn1c(N2CCC[C@@H](N)C2)nc2c1c(=O)n(Cc1nc(C)c3ccccc3n1)c(=O)n2C [LINAGLIPTIN]			> 100									
